According to paper PMC5904360, “Soluble N-Ethylmaleimide-Sensitive Factor Attachment Protein Receptor-Derived Peptides for Regulation of Mast Cell Degranulation” (Frontiers in Immunology, 2018):

Experiments:
[1] = target: T1, SN23-Syn4-Vp2 SNARE complex (Rattus norvegicus, UniProt O70377+P63045+Q08850); test: SNARE-driven membrane fusion (total lipid mixing) assay with proteoliposomes; assay type: biochemical; settings: for inhibition of membrane fusion (lipid mixing): inhibitor applied to T-vesicles, T:V 9:1, 37°C, NBD dequenching, Vp2S/Vp8S at 10 µM, three independent experiments (Figure 3B-D); for inhibition of membrane fusion, peptide added after preincubation: peptide added after preincubation of T- and V-liposomes at 4°C overnight (partially zippered SNAREs) (Figure 4A); for inhibition of membrane fusion, peptide added before preincubation: peptide added before preincubation of T- and V-liposomes at 4°C overnight (Figure 4A)
T1 construct: Syn4 (amino acids 1–298); SNAP-23 (amino acids 1–210); full-length VAMP2 (VpF, amino acids 1–116); GST (N, cleaved yes); made in house; host or cells: Escherichia coli Rosetta(DE3)pLysS
T1 sequence (Q08850 whole entry, the tested form may be a part): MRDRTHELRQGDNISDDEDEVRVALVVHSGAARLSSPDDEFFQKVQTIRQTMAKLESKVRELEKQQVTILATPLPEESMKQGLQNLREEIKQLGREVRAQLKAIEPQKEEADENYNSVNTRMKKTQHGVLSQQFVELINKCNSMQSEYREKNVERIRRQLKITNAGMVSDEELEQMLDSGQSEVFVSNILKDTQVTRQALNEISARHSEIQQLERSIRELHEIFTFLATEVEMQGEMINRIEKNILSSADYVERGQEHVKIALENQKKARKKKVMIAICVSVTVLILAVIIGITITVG
T1 sequence (O70377 whole entry, the tested form may be a part): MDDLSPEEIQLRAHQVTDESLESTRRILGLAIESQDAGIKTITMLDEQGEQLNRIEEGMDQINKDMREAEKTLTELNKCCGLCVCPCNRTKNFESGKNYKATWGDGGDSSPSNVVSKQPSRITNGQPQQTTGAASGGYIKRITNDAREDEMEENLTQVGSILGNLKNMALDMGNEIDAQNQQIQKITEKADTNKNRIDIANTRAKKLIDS
T1 sequence (P63045 whole entry, the tested form may be a part): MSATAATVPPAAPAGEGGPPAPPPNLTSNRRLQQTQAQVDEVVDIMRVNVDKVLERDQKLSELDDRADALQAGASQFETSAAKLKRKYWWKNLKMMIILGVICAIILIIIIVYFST
Text: Total RNA was obtained from RBL-2H3 cells using TRIzol® Reagent (#15596026, Invitrogen, Carlsbad, CA, USA) and served as a template for cDNA synthesis with M-MLV reverse transcriptase (M1705, Promega, Madison, WI, USA) according to the manufacturer’s protocol. The cDNAs amplified for rat Syn4, SNAP-23, VAMP2, VAMP4, VAMP7, and VAMP8 using each primer pair ([4]), were cloned into the pGEX-4T 1 vector. The mast cell SNARE proteins [Syn4 (amino acids 1–298), SNAP-23 (amino acids 1–210), full-length VAMP2 (VpF, amino acids 1–116), VAMP4 (amino acids 1–141), and VAMP8 (amino acids 1–100)] were expressed in Escherichia coli Rosetta(DE3)pLysS (#70956, Novagen, Darmstadt, Germany) and purified as glutathione-S-transferase-tagged fusion proteins as reported previously ([8]).
To prepare the unilamellar liposomes, a 50-mM lipid mixture of palmitoyl-2-oleoylphosphatidylcholine (POPC) (#850457, Avanti Polar Lipids, Alabaster, AL, USA):1,2-dioleoyl-phosphatidylserine (DOPS) (#840035, Avanti Polar Lipids) at 65:35 mol% was dried in a glass tube under a gentle stream of nitrogen gas and then exposed to a vacuum overnight. The resultant lipid film was resuspended in dialysis buffer (25 mM HEPES and 100 mM KCl, pH 7.4) by vortexing, followed by an extrusion step with polycarbonate membrane filters having a pore size of 100 nm (#610005, Avanti Polar Lipids). To prepare proteoliposomes, binary T-SNAREs, which were pre-formed by mixing Syn4 and SNAP-23 at room temperature for 60 min, were incubated with 50 mM unilamellar liposomes for 15 min at the same temperature, resulting in a 50:1 lipid/protein molar ratio ([9]).
For the preparation of V-SNARE proteoliposomes, a 10-mM premixed lipid solution [POPC:DOPS:N-(7-nitro-2-1,3-benzoxadiazol-4-yl (NBD))-phosphatidylserine (#810198, Avanti Polar Lipids):[…] (#810150, Avanti Polar Lipids) = 62:35:1.5:1.5 (molar ratio)] was used for the preparation of fluorescent liposomes in the same manner as above. The prepared liposomes were then mixed with VAMP2 for 15 min at room temperature. The liposome/protein mixture was diluted twice to bring the concentration of n-octyl glucoside (O8001, Sigma-Aldrich) below the critical micelle concentration. After overnight dialysis against 1L dialysis buffer at 4°C to remove the detergent, SM-2 bio-beads (#1523920, Bio-Rad Laboratories, Hercules, CA, USA) were added to the sample to remove any remaining n-octyl glucoside. The solution was then centrifuged at 10,000 × g to remove the protein/lipid aggregates, and the final lipid concentrations of both the T- and V-liposomes were adjusted to 1 mM with a lipid-to-protein ratio of 50:1.
A total lipid mixing assay using the T- and V-liposomes was performed as described previously with minor modifications ([8]). […] The fusion was monitored using the dequenching of NBD fluorescence signal (excitation 465 nm/emission 530 nm). After at least 80 min of fusion, the maximum NBD signal was obtained by adding 0.1% Triton X-100™. All the lipid-mixing experiments were performed at 37°C.

SN23-Syn4-Vp2 complex = target: T2, SN23-Syn4-Vp2 complex (Rattus norvegicus, UniProt O70377+P63045+Q08850); test: Co-immunoprecipitation of SNARE complexes in activated RBL-2H3 cells, anti-SNAP-23 blot; assay type: cell-based; settings: peptides added to the medium after A23187 pretreatment; IP of Vp2, blot anti-SNAP-23 (Figure 4C)
T2 construct: Lysates of RBL-2H3 cells; endogenous in cells; host or cells: RBL-2H3 (ATCC CRL-2256)
T2 sequence (Q08850 whole entry): as the sequence (Q08850 whole entry, the tested form may be a part) above
T2 sequence (O70377 whole entry): as the sequence (O70377 whole entry, the tested form may be a part) above
T2 sequence (P63045 whole entry): as the sequence (P63045 whole entry, the tested form may be a part) above

[2] = test system: complexes containing both Syn4 and SN23; test: as above; assay type: cell-based, rat; settings: peptides added to the medium after A23187 pretreatment; co-IP, blot anti-SNAP-23 (Figure 4C)
Procedure: Lysates of RBL-2H3 cells (0.5–1 × 10^6 cells), which were obtained by the addition of 1 mL lysis buffer (50 mM Tris–HCl, 150 mM NaCl, 1% Triton X-100™, 1 mM EDTA, pH 7.5) supplemented with a protease inhibitor cocktail (Calbiochem®, Merck Millipore, Billerica, MA, USA), were centrifuged at 13,000 g at 4°C to remove cell debris and precleared with 100 µL protein G Sepharose® (GE Healthcare) for 2 h at 4°C. The precleared lysates were incubated with antibodies against SNARE proteins (Syn4, SNAP-23, VAMP2, and VAMP8) for 2 h at 4°C for binding, and then the antibody–antigen complexes were precipitated by incubation with a protein G slurry overnight with constant shaking. After an extensive washing step with lysis buffer, an immunoblotting analysis was performed for the precipitates. The immunoprecipitated proteins and cell lysates were electrophoresed on 12% sodium dodecyl sulfate-polyacrylamide gel electrophoresis gels and then transferred to nitrocellulose blotting membranes (GE Healthcare). After blocking the membranes in TBST (10 mM Tris–HCl, 150 mM NaCl, and 0.05% Tween® 20, pH 8) containing 0.5% BSA and 5% skim milk for 1 h at room temperature, primary anti-SNAP-23 antibody (1:1,000 dilution) in TBST supplemented with 1% BSA and 0.01% sodium azide was added and incubated at 4°C overnight. […]

Q: What does the source list for “EDEMEENLTQVGSILGN [SC23N, 17-mer peptide, N-terminal region of SNAP-23 SNARE motif SC23]”?
A: inhibition of membrane fusion (lipid mixing) [1]: inhibited membrane fusion by both the SN23-Syn4-Vp2 and SN23-Syn4-Vp8 complexes; inhibition of membrane fusion, peptide added after preincubation [1]: inhibitory activities significantly diminished; inhibition of membrane fusion, peptide added before preincubation [1]: inhibited the membrane fusion induced by both SN23-Syn4-Vp2 and SN23-Syn4-Vp8; SNARE complex formation in cells (amount of SN23-Syn4-Vp2 complex) (SN23-Syn4-Vp2 complex): reduced; amount of complexes containing both Syn4 and SN23 (binary Syn4-SN23 and ternary complexes) [2]: most dramatically reduced

Q: Which results are given for “SARHSEIQQLERTIREL [Syn4N, 17-mer peptide, N-terminal region of syntaxin 4 SNARE motif]”?
A: inhibition of membrane fusion (lipid mixing) [1]: inhibited membrane fusion by both the SN23-Syn4-Vp2 and SN23-Syn4-Vp8 complexes; inhibition of membrane fusion, peptide added after preincubation [1]: inhibitory activities significantly diminished; inhibition of membrane fusion, peptide added before preincubation [1]: inhibited the membrane fusion induced by both SN23-Syn4-Vp2 and SN23-Syn4-Vp8; SNARE complex formation in cells (amount of SN23-Syn4-Vp2 complex) (SN23-Syn4-Vp2 complex): reduced; amount of complexes containing both Syn4 and SN23 (binary Syn4-SN23 and ternary complexes) [2]: most dramatically reduced
